This is an account of results in patent publication US11351178B2, “Selective HDAC6 inhibitors” (ITALFARMACO S.P.A., priority 2017, dated 2022).

One data set has as its target T1, HDAC11 (Homo sapiens, UniProt Q96DB2).
T1 construct: purchased BML SE560
T1 sequence (Q96DB2 1-347): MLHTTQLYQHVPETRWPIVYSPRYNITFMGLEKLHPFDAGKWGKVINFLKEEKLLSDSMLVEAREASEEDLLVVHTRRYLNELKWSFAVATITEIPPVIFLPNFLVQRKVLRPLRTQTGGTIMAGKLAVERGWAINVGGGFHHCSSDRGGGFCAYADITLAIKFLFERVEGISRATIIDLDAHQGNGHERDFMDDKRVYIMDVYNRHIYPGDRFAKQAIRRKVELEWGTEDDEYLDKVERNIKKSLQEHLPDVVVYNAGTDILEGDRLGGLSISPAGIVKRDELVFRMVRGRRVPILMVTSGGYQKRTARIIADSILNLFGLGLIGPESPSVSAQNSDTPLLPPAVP
The experiment in a line: Enzymatic test HDAC11. The settings on record: Table 3. The format is biochemical. As for the experimental part: (§1) After a period of incubation at 30° C. (incubation times vary for different isoforms and are shown in table 1) 25 μL of solution containing the substrate were added. As substrate, FLUOR DE LYS® deacetylase substrate (Enzo Life Sciences, cat #BML-K1104, FdL), FLUOR DE LYS®-Green substrate (Enzo Life Sciences, cat #BML-K1572 FdL_G) and trifluoroacetyl-L-lysine (Tfal)-2× concentrated solution in 25 mM Tris-HCl, pH 8, 130 mM NaCl 0.05% Tween-20 10% glycerol) were used. Following a reaction period at 30° C.

Data set [1] concerns peripheral blood mononuclear cells (PBMCs). The experiment in a line: Cytotoxicity on PBMCs (CellTiter 96). The settings on record: PBMC, 72 h; read-out: PBMC TOXICITY (72 h). The format is cell-based. An outline of the steps:
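Mitochondrial-function readout (CellTiter 96 Aqueous One) after 72 h compound exposure, begun 24 h post-seeding. Dose ranges: 697 cells, 1 to 10000 nM at 2×10^4 cells/well; PBMCs, 1.5 to 10000 nM at 5×10^5 cells/well.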

The subject of data set [2] is regulatory T cell (Treg, CD4+CD25+) suppression activity. Briefly: T CD4 lymphocyte proliferation mediated by mouse regulatory T cells suppression assay. The format is cell-based. As for the experimental part: To evaluate the ability of the molecules under this patent to increase regulatory T cell (Treg, CD4^+CD25^+) suppression activity a T-cell (responder T cells, Teff) proliferation suppression assay was used. Treg cells at different concentrations were cultured with Teff cells (CD4^+CD25^−) in the presence of proliferative stimuli. T cells need of two stimuli to proliferate: the first given by the recognition of antigen associated with MHC by T cell receptor (TCR) and the second one derived from co-stimulatory molecules such as CD28. In the absence of a specific antigen, TCR activation can take place with an antibody recognizing one of the composing subunits, CD3ε. In this assay, anti-CD3ε monoclonal antibody and CD4 T cell depleted splenocytes were used as activator stimuli. Therefore, the ability to reduce Teff cells proliferation by Tregs in the presence or absence of HDAC6 inhibitors was assessed.
Treg and Teff cells were separated using the Treg isolation kit based on magnetic beads separation technique (Miltenyi Biotec) through an initial negative selection and a final positive selection process.
Single cell suspension was obtained from spleen of C57BL/6 mice using a 70 μm strainer.
Cell suspension was treated with ACK buffer to lyse red blood cells and then centrifuged for 5 minutes at 300×g. After centrifugation, the cells were resuspended in PBS (Phosphate Buffered Saline, Gibco) and counted. Subsequently, splenocytes were resuspended in a buffer consisting of PBS, 0.5% BSA and 2 mM EDTA.
To proceed with the first step of Treg separation, CD4 negative cells were indirectly magnetically labeled with a cocktail of biotin-conjugated antibodies against CD8a, CD11b, CD45R, CD49b, Ter-119 and Anti-Biotin MicroBeads CD4+ cells were thus obtained by negative selection as flow-through of a magnetic MACS column.
Cells bound to microbeads were eluted and conserved for their use as antigen presenting cells (APC) in the proliferation assay.
In the second step of Treg purification, pre-enriched CD4+ cells were labelled with an R-phycoerythrin (PE)-conjugated anti-CD25 antibody that preferentially binds to Treg cells and magnetic beads coupled with an anti PE antibody. The cell suspension was then loaded on a column. The Teff cells pass through the column without binding (negative selection), while beads-bound Treg cells adhere through the magnetic beads (positive selection). Treg cells were then eluted from the column by buffer flow using a plunger. Treg and Teff cell purification is summarized in FIG. 6. • CD4− cells from first positive selection as APC • Treg CD4+ CD25+ as suppressor cells • Teff CD4+ CD25− as responder/proliferating cells
CD4^− cells were treated with mitomycin C (50 μg/ml, Sigma) for 30 min at 37° C. to prevent their proliferation They were then resuspended at a concentration of 4.0×10^5/50 μl in complete medium (RPMI, FBS10%, penicillin/streptomycin 1×, 50 μM beta mercaptoethanol). Teffs were labeled with carboxy fluorescein succinimidyl ester (CFSE) at a concentration of 2 μM in PBS at 37° C., and after 10 minutes incubation, the reaction was blocked with a 10% FBS PBS solution. CFSE labelling allows covalent modification of Teff cell to analyse their proliferation by fluorescence dilution. The labelled Teffs were then centrifuged and resuspended at the final concentration of 5.0×10^4/50 μl in complete medium. Finally, the Tregs obtained by purification were diluted to the final concentration of 5.0×10^4/50 μl in complete medium.
Then a co-culture of Teff (5.0×10^4), T CD4^− (4.0×10^5) was prepared and Treg cells in different ratios (1:1, 1:2, 1:4, 1:8 ratio Teff to Treg cells) were added thereto. The test compounds at different concentrations or DMSO vehicle were added to the cell suspension. Finally, an anti-CD3ε monoclonal antibody (Miltenyi Biotec) was added at a concentration of 1 μg/ml. Cells were plated in flat bottom 96-well plates and each condition was set up in a technical duplicate. […]

Another data set has as its target T2, HDAC4 (Homo sapiens, UniProt P56524).
T2 construct: purchased BPS 50004
Briefly: Enzymatic test HDAC4. The format is biochemical. Particulars: Table 3. As for the experimental part: as §1

The nature of data set [3]: Stability to Phase I metabolism in human S9 liver fraction. The format is in vitro ADME. A digest of the protocol:
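Phase I stability in human and rat hepatic S9 at 37 °C, sampled up to 90 min. Samples were stopped with acidified acetonitrile on ice, then quantified by HPLC-UV or LC-MS/MS.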

Setting [4] is: human liver S9 fraction, after 90 min, 37° C.

pIC50: −log10 of the molar value. A value given as a limit tells only on which side of the number the result lay.

T2 sequence (P56524 627-1084 limits assumed): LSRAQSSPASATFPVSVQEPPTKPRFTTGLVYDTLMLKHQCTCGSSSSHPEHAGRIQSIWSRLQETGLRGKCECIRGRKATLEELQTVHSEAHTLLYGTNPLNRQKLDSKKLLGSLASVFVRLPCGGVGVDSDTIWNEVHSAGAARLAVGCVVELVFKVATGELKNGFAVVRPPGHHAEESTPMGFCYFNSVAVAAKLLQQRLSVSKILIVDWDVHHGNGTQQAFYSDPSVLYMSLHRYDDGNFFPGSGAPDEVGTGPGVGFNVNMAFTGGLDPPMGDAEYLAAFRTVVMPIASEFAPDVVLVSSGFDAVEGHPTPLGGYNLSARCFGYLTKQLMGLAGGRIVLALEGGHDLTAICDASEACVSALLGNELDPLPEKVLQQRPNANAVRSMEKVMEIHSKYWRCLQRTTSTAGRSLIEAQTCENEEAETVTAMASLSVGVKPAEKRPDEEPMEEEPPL

Regarding `O=C(NO)c1cc(F)c(Cn2nnc(-c3ccccn3)n2)c(F)c1` [comp. 6, 3,5-difluoro-N-hydroxy-4-((5-(pyridin-2-yl)-2H-tetrazol-2-yl)methyl)benzamide], the pIC50 is 5.29 on HDAC11, 4.70 in data set [1] and 5.98 at HDAC4. For the same compound, the “RS (relative T-reg suppression, AUC drug/AUC control)” value in data set [2] (concentration 1 μM) is 1.7. Further, the “residual percentage in human S9 fraction” value in data set [3] (setting [4]) is 85.6%.
`O=C(NO)c1cc(F)c(Cn2nnnc2-c2ccccn2)c(F)c1` [comp. 13, 3,5-difluoro-N-hydroxy-4-((5-(pyridin-2-yl)-1H-tetrazol-1-yl)methyl)benzamide]: the pIC50 against HDAC11 was 5.83; against HDAC4, 6.22. Moreover, the “RS (relative T-reg suppression, AUC drug/AUC control)” value in data set [2] (concentration 1 μM) is listed as 1.9. The “residual percentage in human S9 fraction” value in data set [3] (human, 90 min, pH 7.4) is 98%.
Turning to `O=C(NO)c1cc(F)c(Cn2nnnc2-c2cccs2)c(F)c1` [comp. 15, 3,5-difluoro-N-hydroxy-4-((5-(thiophen-2-yl)-1H-tetrazol-1-yl)methyl)benzamide], the pIC50 is 5.34 on HDAC11, under 5.00 in data set [1] and 6.18 at HDAC4. For the same compound, the “RS (relative T-reg suppression, AUC drug/AUC control)” value in data set [2] (concentration 1 μM) came to 3.0. In addition, in data set [3] (human, 90 min, pH 7.4), the “residual percentage in human S9 fraction” value came to 83%.
With `O=C(NO)c1cc(F)c(Cn2nnc(-c3ccco3)n2)c(F)c1` [comp. 19, 3,5-difluoro-4-((5-(furan-2-yl)-2H-tetrazol-2-yl)methyl)-N-hydroxybenzamide], the pIC50 on HDAC11 was 6.10; in data set [1] it was under 5.00; on HDAC4 it was 6.17. Further, the “RS (relative T-reg suppression, AUC drug/AUC control)” value in data set [2] (concentration 1 μM) came to 2.3. The “residual percentage in human S9 fraction” value in data set [3] (setting [4]) is on record as 94%.
Consider `O=C(NO)c1ccc(Cn2nnc(-c3ccccc3F)n2)cc1` [comp. 33, 4-[[5-(2-fluorophenyl)tetrazol-2-yl]methyl]benzenecarbohydroxamic acid], for which the results for the pIC50 at HDAC11 and at HDAC4 were 6.65 and 5.72, respectively. Also, the “RS (relative T-reg suppression, AUC drug/AUC control)” value in data set [2] (concentration 0.10 μM) worked out at 4.6.
On to `CN(C)S(=O)(=O)c1cccc(-c2nnn(Cc3ccc(C(=O)NO)cc3)n2)c1` [comp. 59, 4-[[5-[3-(dimethylsulfamoyl)phenyl]tetrazol-2-yl]methyl]benzenecarbohydroxamic acid], for which the pIC50 at HDAC11 is 6.29; against HDAC4 it was 5.60. Besides, in data set [2] (concentration 0.5 μM), the “RS (relative T-reg suppression, AUC drug/AUC control)” value is given as 4.8.
As to `CCN(CC)S(=O)(=O)c1cccc(-c2nnc(Sc3ccc(C(=O)NO)cc3)n2N)c1` [comp. 61, 4-[[4-amino-5-[3-(diethylsulfamoyl)phenyl]-1,2,4-triazol-3-yl]sulfanyl]benzenecarbohydroxamic acid], the pIC50 is 6.04 against HDAC11 and 5.80 at HDAC4. For the same compound, the “RS (relative T-reg suppression, AUC drug/AUC control)” value in data set [2] (concentration 1 μM) is 1.1.
For `O=C(NO)c1cc(F)c(Cn2nnc(-c3cccs3)n2)c(F)c1` [comp. 65, 3,5-difluoro-4-[[5-(2-thienyl)tetrazol-2-yl]methyl]benzenecarbohydroxamic acid] the same measures were 6.01, 6.08 and 4.4.
Taken in the same sequence, the figures for `CCN(CC)S(=O)(=O)c1cccc(-c2nnc(Sc3ccc(C(=O)NO)cc3)n2C)c1` [comp. 66, 4-[[5-[3-(diethylsulfamoyl)phenyl]-4-methyl-1,2,4-triazol-3-yl]sulfanyl]benzenecarbohydroxamic acid] were 6.00, 6.32 and 2.6.
Consider `CN(C)c1cccc(-c2nnc(Sc3ccc(C(=O)NO)cc3)n2C)c1` [comp. 77, 4-[[5-[3-(dimethylamino)phenyl]-4-methyl-1,2,4-triazol-3-yl]sulfanyl]benzenecarbohydroxamic acid], for which the pIC50 against HDAC11 was 5.84; in data set [1] it was 5.70; against HDAC4 it was 5.58. In data set [2] (concentration 1 μM), the “RS (relative T-reg suppression, AUC drug/AUC control)” value was determined as 2.4.
For `O=C(NO)c1cc(F)c(Cn2nnc(-c3scc4c3OCCO4)n2)c(F)c1` [comp. 79, 4-[[5-(2,3-dihydrothieno[3,4-b][1,4]dioxin-5-yl)tetrazol-2-yl]methyl]-3,5-difluoro-benzenecarbohydroxamic acid] the same measures were 6.18, 5.52, 6.27 and 1.7.
For the compound `Cc1cc(-c2nnc(Sc3ccc(C(=O)NO)cc3)n2C)nn1C` [comp. 85, 4-[[5-(1,5-dimethylpyrazol-3-yl)-4-methyl-1,2,4-triazol-3-yl]sulfanyl]benzenecarbohydroxamic acid], the pIC50 at HDAC11 was 6.25; in data set [1] it was 5.70; against HDAC4, 5.99. Moreover, the “RS (relative T-reg suppression, AUC drug/AUC control)” value in data set [2] (concentration 0.5 μM) is recorded as 3.0; in data set [2] (concentration 1 μM), 3.8.
